Laboratory results reported in PubChem BioAssay AID1259407 (Chemical Carcinogenesis Research Information System (CCRIS), 2018).
The source made the active and inactive calls. The rule behind the calls is not given here.

Test system: CCRIS mutagenicity, Ames/micronucleus/aberration tests
Experiment: CCRIS mutagenicity studies
Details: Method: STANDARD PLATE

Measured: mutagenic call

O=C(NC(Cc1cc(=O)[nH]c2ccccc12)C(=O)O)c1ccc(Cl)cc1 (configuration not stated)
inactive: Test System: AMES SALMONELLA TYPHIMURIUM, Strain/Indicator: TA98, Metabolic Activation: NONE inactive; negative | Test System: AMES SALMONELLA TYPHIMURIUM, Strain/Indicator: TA98, Metabolic Activation: S-9 inactive; negative | Test System: AMES SALMONELLA TYPHIMURIUM, Strain/Indicator: TA100, Metabolic Activation: NONE inactive; negative | Test System: AMES SALMONELLA TYPHIMURIUM, Strain/Indicator: TA100, Metabolic Activation: S-9 inactive; negative | Test System: AMES SALMONELLA TYPHIMURIUM, Strain/Indicator: TA1535, Metabolic Activation: NONE inactive; negative | Test System: AMES SALMONELLA TYPHIMURIUM, Strain/Indicator: TA1535, Metabolic Activation: S-9 inactive; negative | Test System: AMES SALMONELLA TYPHIMURIUM, Strain/Indicator: TA1537, Metabolic Activation: NONE inactive; negative | Test System: AMES SALMONELLA TYPHIMURIUM, Strain/Indicator: TA1537, Metabolic Activation: S-9 inactive; negative | Test System: AMES SALMONELLA TYPHIMURIUM, Strain/Indicator: TA1538, Metabolic Activation: NONE inactive; negative | Test System: AMES SALMONELLA TYPHIMURIUM, Strain/Indicator: TA1538, Metabolic Activation: S-9 inactive; negative | Test System: E.COLI, Strain/Indicator: WP2 UVRA, Metabolic Activation: NONE inactive; negative | Test System: E.COLI, Strain/Indicator: WP2 UVRA, Metabolic Activation: S-9 inactive; negative
